How the values were obtained:
Assay type in all cases: physicochemical
[1] = Krafft point of aqueous dispersion of aldonamide; conditions: for Krafft Point (0.1%): 0.1% in water by weight; for Krafft Point (1.0%): 1.0% in water by weight
Method: The temperature at and above which surfactants begin to form micelles instead of precipitates is referred to as the Krafft point (Tk) and at this temperature the solubility of a surfactant becomes equal to its CMC (numerical value at which micelles are formed).
The Krafft point was measured by preparing 650 ml of a 0.1% or 1.0% dispersion of aldonamide in water by weight. If the surfactant was soluble at room temperature, the solution was slowly cooled to 0° C. […] (less than zero). If it precipitated out of solution, the temperature at which precipitation occurs was taken as the Krafft point.
If the surfactant was insoluble at :room temperature, the dispersion was slowly heated until the solution became homogeneous. It was then slowly cooled until precipitation occurred. The temperature at which the surfactant precipitates out of solution upon cooling was taken as the Krafft point.

Ross-Miles foam height [2] = experiment: Ross-Miles foam height; set-up: key: X: low water solubility. foam height cannot be measured; conditions: Examples 82-83; for Foam Height Final (symbol): after 10 minutes
Method: (§1) Since most of the foaming data on surfactants is typically obtained by the Ross-Miles Foam Height Assay (Ross, J. and Miles, G. D. Am Soc. for Testing Material Method D1173-63 Philadelphia, Pa. (1953); Oil & Soap (1958) 62:1260) the foaming ability of these surfactants were acquired using this method.
(§2) In the Ross-Miles method, 200 mL of a surfactant solution contained in a pipette of specified dimensions with a 2.9-mm-i.d. orifice is allowed to fall 90 cm onto 50 mL of the same solution contained in a cylindrical vessel maintained at a given temperature by means of a water jacket. The height of the foam produced in the cylindrical vessel is read immediately after all the solution has run out of the pipette and then again after a given amount of time.
(§3) Using this method, the foam production (initial foam height in mm) and foam stability (final foam height after 10 minutes in mm) were measured at 0.1% aldonamide concentration, 40° C. and 0 ppm (parts per million) hardness. Aldonamides that were not soluble at 40° C. were measured at about 5°-10° C. above their Krafft points.

Water solubility = conditions: in words
Ross-Miles foam height [3] = conditions: 0.1% aldonamide, 40° C. (or about 5°-10° C. above Krafft point if not soluble), 0 ppm hardness; for Foam Height Final: after 10 minutes
Method: as §1, §2, §3

Krafft Point (0.1%) [1] [°C]	Krafft Point (1.0%) [1] [°C]	Compound	also measured
53		CCCCCCCCCCCCOC(=O)C(C)NC(=O)[C@H](O)[C@@H](O)[C@H](O)[C@H](O)CO (mixture of isomers) [Y, N-D-Gluconyl Dodecyl DL-Alaninate]	
54		CCCCCCCCCCCCNC(=O)[C@H](O)[C@H](O)[C@H](O)CO [A, dodecyl D-ribonamide]	
	< 0	CCCCCCCCCCCCOC(=O)CNC(=O)[C@H](O)[C@@H](O)[C@H](O[C@@H]1O[C@H](CO)[C@H](O)[C@H](O)[C@H]1O)[C@H](O)CO [AAA, N-D-lactobionyl dodecyl glycinate]	
	< 0	CCCCCCCCCCCCOC(=O)CCNC(=O)[C@H](O)[C@@H](O)[C@H](O[C@@H]1O[C@H](CO)[C@H](O)[C@H](O)[C@H]1O)[C@H](O)CO [BBB, N-D-lactobionyl dodecyl β-alaninate]	
< 0		CCCCCCCNC(=O)[C@H](O)[C@@H](O)[C@H](O)[C@H](O)CO [C, C7 D-Gluconamide]	
< 0		CCCCCCCC/C=C\CCCCCCCCNCCCNC(=O)[C@H](O)[C@@H](O)[C@H](O)[C@H](O)CO [CC, oleylaminopropyl D-gluconamide]	
12		CCCCCCCCNC(=O)[C@H](O)[C@@H](O)[C@H](O)[C@H](O)CO [D, C8 D-Gluconamide]	
53		CCCCCCCCCNC(=O)[C@H](O)[C@@H](O)[C@H](O)[C@H](O)CO [E, C9 D-Gluconamide]	
61		CCCCCCCCCCCCOCCCNC(=O)[C@H](O)[C@@H](O)[C@H](O)[C@H](O)CO [Entry S, C12 Oxypropyl D-Gluconamide]	
75		CCCCCCCCCCNC(=O)[C@H](O)[C@@H](O)[C@H](O)[C@H](O)CO [F, C10 D-Gluconamide]	
86		CCCCCCCCCCCCNC(=O)C(O)C(O)C(O)C(O)C(O)C(O)CO [FF, C12 D-Glucooctonamide]	Foam Height Final (symbol) (Ross-Miles foam height [2]): X; Foam Height Initial (symbol) (Ross-Miles foam height [2]): X
87		CCCCCCCCCCCNC(=O)[C@H](O)[C@@H](O)[C@H](O)[C@H](O)CO [G, C11 D-Gluconamide]	Foam Height Final (symbol) (Ross-Miles foam height [2]): X; Foam Height Initial (symbol) (Ross-Miles foam height [2]): X
> 100		CCCCCCCCCCCCNC(=O)[C@H](O)[C@H](O)[C@@H](O)[C@@H](O)[C@H](O)CO [GG, C12 D-Glycero-L-Mannoheptonamide]	water solubility (Water solubility): Insoluble
91		CCCCCCCCCCCCNC(=O)[C@H](O)[C@H](O)[C@@H](O)[C@H](O)[C@H](O)CO [HH, C12 D-Glucoheptonamide]	Foam Height Final (symbol) (Ross-Miles foam height [2]): X; Foam Height Initial (symbol) (Ross-Miles foam height [2]): X
91		CCCCCCCCCCCCNC(=O)[C@@H](O)[C@H](O)[C@@H](O)[C@@H](O)CO [I, C12 L-Gluconamide]	Foam Height Final (symbol) (Ross-Miles foam height [2]): X; Foam Height Initial (symbol) (Ross-Miles foam height [2]): X
> 100		CCCCCCCCCCCCNC(=O)[C@H](O)[C@@H](O)[C@@H](O)[C@H](O)CO [J, C12 D-Galactonamide]	water solubility (Water solubility): Insoluble
> 100		CCCCCCCCCCCCNC(=O)[C@@H](O)[C@H](O)[C@H](O)[C@@H](O)CO [K, C12 L-Galactonamide]	water solubility (Water solubility): Insoluble
73		CCCCCCCCCCCCOCCCNC(=O)[C@H](O)[C@H](O)[C@@H](O)[C@H](O)[C@H](O)CO [KK, C12 Oxypropyl D-Glucoheptonamide]	
	42	CCCCCCCCCNC(=O)[C@H](O)[C@@H](O)[C@H](O[C@@H]1O[C@H](CO)[C@H](O)[C@H](O)[C@H]1O)[C@H](O)CO [MM, nonyl D-lactobionamide]	
	61	CCCCCCCCCCCNC(=O)[C@H](O)[C@@H](O)[C@H](O[C@@H]1O[C@H](CO)[C@H](O)[C@H](O)[C@H]1O)[C@H](O)CO [NN, C11 D-Lactobionamide]	
	38	CCCCCCCCCCCCNC(=O)[C@H](O)[C@@H](O)[C@H](O[C@@H]1O[C@H](CO)[C@H](O)[C@H](O)[C@H]1O)[C@H](O)CO [OO, C12 D-Lactobionamide]	
< 0		CCCCC(CC)COCCCNC(=O)[C@H](O)[C@@H](O)[C@H](O)[C@H](O)CO (stereo partly drawn) [P, Ethylhexyloxypropyl D-Gluconamide]	
	70	CCCCCCCCCCCCCNC(=O)[C@H](O)[C@@H](O)[C@H](O[C@@H]1O[C@H](CO)[C@H](O)[C@H](O)[C@H]1O)[C@H](O)CO [PP, C13 D-Lactobionamide]	
	18	CCCCCCCCCCCCCCNC(=O)[C@H](O)[C@@H](O)[C@H](O[C@@H]1O[C@H](CO)[C@H](O)[C@H](O)[C@H]1O)[C@H](O)CO [QQ, C14 D-Lactobionamide]	

Krafft Point (0.1%) [1] [°C]	Krafft Point (1.0%) [1] [°C]	Compound	also measured
	46	CCCCCCCCCCCCCCNC(=O)[C@H](O)[C@@H](O)[C@H](O[C@H]1O[C@H](CO)[C@@H](O)[C@H](O)[C@H]1O)[C@H](O)CO [RR, C14 D-Maltobionamide]	
	64	CCCCCCCCCCCCCCCCNC(=O)[C@H](O)[C@@H](O)[C@H](O[C@@H]1O[C@H](CO)[C@H](O)[C@H](O)[C@H]1O)[C@H](O)CO [TT, C16 D-Lactobionamide]	
53		CCCCCCCCCCCCCCOCCCNC(=O)[C@H](O)[C@@H](O)[C@H](O)[C@H](O)CO [V, C14 Oxypropyl D-Gluconamide]	
63		CCCCCCCCCCCCOC(=O)CNC(=O)[C@H](O)[C@@H](O)[C@H](O)[C@H](O)CO [W, N-D-gluconyl dodecyl glycinate]	
	< 0	CCCCCCCCCCCCOCCCNC(=O)[C@H](O)[C@@H](O)[C@H](O[C@@H]1O[C@H](CO)[C@H](O)[C@H](O)[C@H]1O)[C@H](O)CO [WW, dodecyloxypropyl D-lactobionamide]	
63		CCCCCCCCCCCC(=O)OCCNC(=O)[C@H](O)[C@@H](O)[C@H](O)[C@H](O)CO [X, N-D-gluconyl dodecyl ester of ethanolamine]	
	< 0	CCCCCCCCCCCCOCCCNC(=O)[C@H](O)[C@@H](O)[C@H](O[C@H]1O[C@H](CO)[C@@H](O)[C@H](O)[C@H]1O)[C@H](O)CO [XX, dodecyloxypropyl D-maltobionamide]	
< 0		CCCCCCCCCCCCOCCOCCOC(=O)CNC(=O)[C@H](O)[C@@H](O)[C@H](O)[C@H](O)CO [Z, N-D-Gluconyl Dodecyldi(oxyethyl) Glycinate]	
	< 0	CCCCCCCCCCCCCCOCCCNC(=O)[C@H](O)[C@@H](O)[C@H](O[C@@H]1O[C@H](CO)[C@H](O)[C@H](O)[C@H]1O)[C@H](O)CO [ZZ, tetradecyloxypropyl D-lactobionamide]	
60		C8 /C10 Oxypropyl D-Glucoheptonamide [II]	Foam Height Final (Ross-Miles foam height [3]): 90 mm; Foam Height Initial (Ross-Miles foam height [3]): 221 mm
68		C12 -C15 Oxypropyl D-Glucoheptonamide [LL]	Foam Height Final (Ross-Miles foam height [3]): 97 mm; Foam Height Initial (Ross-Miles foam height [3]): 239 mm
18		Iso C10 Oxypropyl D-Glucoheptonamide [JJ]	Foam Height Final (Ross-Miles foam height [3]): 204 mm; Foam Height Initial (Ross-Miles foam height [3]): 215 mm
< 0		Iso C10 Oxypropyl D-Gluconamide	Foam Height Final (Ross-Miles foam height [3]): 206 mm; Foam Height Initial (Ross-Miles foam height [3]): 213 mm
< 15		Iso C13 Oxypropyl D-Gluconamide [T]	
< 0		Iso C13 Oxypropylaminopropyl D-Gluconamide [DD]	Foam Height Final (Ross-Miles foam height [3]): 178 mm
18		cocoaminopropyl D-gluconamide [AA]	
	< 0	cocoaminopropyl D-lactobionamide [CCC]	
58		dodecyl to pentadecyloxypropyl D-gluconamide	
	< 0	dodecyl to pentadecyloxypropyl D-lactobionamide [YY]	
< 0		dodecyl to pentadecyloxypropylaminopropyl D-gluconamide [EE]	
10		octyl/decyloxypropyl D-ribonamide	
	< 0	oleylaminopropyl D-lactobionamide [DDD]	Foam Height Initial (Ross-Miles foam height [3]): 169 mm
< 18		soyaaminopropyl D-gluconamide [BB]	

Compound	Krafft Point (0.1%) [1] [°C]	Krafft Point (1.0%) [1] [°C]	also measured
dodecyl to pentadecyloxypropylaminopropyl D-lactobionamide [EEE]		< 0	
octyl/decyloxypropyl D-lactobionamide [VV]		< 0	

Reference: US5521293A (Lever Brothers Company, Division of Conopco, Inc., priority 1995, dated 1996)
